The subject of data set [1] is SCC-7. Nature of the data set: Antitumor activity against mouse SCC-7 cells implanted in C3H mouse assessed as tumor growth time at 12 mg/kg, ip treated every other day 3 times in total (reference value: 2.8 +/- 0.6 day). The format is functional.
Data set [2] relates to SCC-7. As to the kind of experiment: Antitumor activity against mouse SCC-7 cells implanted in C3H mouse assessed as tumor growth time delay at 12 mg/kg, ip treated every other day 3 times in total. The data set is classed as functional.
Data set [3] concerns SCC-7. Nature of the data set: Antiproliferative activity against mouse SCC-7 cells assessed as cell growth inhibition by CCK8 assay. The format is functional, cell-based. On the technique in general: Tetrazolium assays rely on reduction of a dye to a coloured formazan, in cell work by metabolically active cells.
In another data set the test system is UMSCC22B. As to the kind of experiment: Antiproliferative activity against human UMSCC22B cells assessed as cell growth inhibition by CCK8 assay. The data set is classed as functional, cell-based.
The next data set deals with PANC-1. As to the kind of experiment: Antiproliferative activity against human PANC-1 cells assessed as cell growth inhibition by CCK8 assay. The format is functional, cell-based.
The test system of the next data set is M21. Nature of the data set: Antiproliferative activity against human M21 cells assessed as cell growth inhibition by CCK8 assay. The format is functional, cell-based.
Another data set relates to U-87 MG. As to the kind of experiment: Antiproliferative activity against human U87 cells assessed as cell growth inhibition by CCK8 assay. The data set is classed as functional, cell-based, U-87MG ATCC.
A further data set concerns RKO. Nature of the data set: Antiproliferative activity against human RKO cells assessed as cell growth inhibition by CCK8 assay. The data set is classed as functional, cell-based.
Another data set deals with HT-29. As to the kind of experiment: Antiproliferative activity against human HT-29 cells assessed as cell growth inhibition by CCK8 assay. The data set is classed as functional, cell-based.
Another data set relates to SNB-75. As to the kind of experiment: Antiproliferative activity against human SNB-75 cells assessed as cell growth inhibition by CCK8 assay. The format is functional, cell-based.
Another data set deals with MCF7. Nature of the data set: Antiproliferative activity against human MCF7 cells assessed as cell growth inhibition by CCK8 assay. The format is functional, cell-based.
In a further data set the test system is A498. As to the kind of experiment: Antiproliferative activity against human A498 cells assessed as cell growth inhibition by CCK8 assay. The data set is classed as functional, cell-based.
In another data set the test system is IMR-32. As to the kind of experiment: Antiproliferative activity against human IMR-32 cells assessed as cell growth inhibition by CCK8 assay. The data set is classed as functional, cell-based.
Another data set deals with A549. Nature of the data set: Antiproliferative activity against human A549 cells assessed as cell growth inhibition by CCK8 assay. The format is functional, cell-based.
The nature of data set [4]: Terminal half life in human plasma. The data set is classed as ADME, cell-free. Particulars: read-out: beta t1/2.

As a reminder, the IC50 is the concentration at which inhibition is half-maximal. On to `O=C(CBr)N1CC([N+](=O)[O-])([N+](=O)[O-])C1` [NIBROZETONE], for which the Time came to 4.8 days in the data set on SCC-7 [1] and 2 days in the data set on SCC-7 [2]. For the same compound, the IC50 is 1.8 pM with SCC-7 [3]; 2.3 pM in the data set on UMSCC22B; 2.3 pM in the data set on PANC-1; 2.6 pM with M21; 2.7 pM in the data set with U-87 MG; 3 pM in the data set on RKO. The IC50 with HT-29 came to 3.4 pM; with SNB-75, 3.8 pM; with MCF7, 4 pM; in the data set with A498, 4.9 pM; with IMR-32, 5.1 pM; with A549, 6 pM. In [4], the half-life was found to be 27.6 min.
For `C[N+](C)(C)CC(=O)N1CC([N+](=O)[O-])([N+](=O)[O-])C1`, the Time with SCC-7 [1] is 3.6 days; in the data set on SCC-7 [2] it was 0.8 days.
On the same counts, the results for `O=C(CBr)N1CCC1` are 3.8 days and 1 days.
`N[C@@H](CSCC(=O)N1CC([N+](=O)[O-])([N+](=O)[O-])C1)C(=O)O`: the results for the Time in the data set on SCC-7 [1] and in the data set on SCC-7 [2] were 3.9 days and 1.1 days, respectively.

Source of the values: ChEMBL document CHEMBL5036323, “Discovery of RRx-001, a Myc and CD47 Downregulating Small Molecule with Tumor Targeted Cytotoxicity and Healthy Tissue Cytoprotective Properties in Clinical Development” (J Med Chem, 2021).
